The T/C is the result in the treated group divided by that in the control group, in per cent.

Test [1] concerns L1210. Put plainly: Median survival time of inhibitory activity against L1210 tumor cells in mice at the dose of 200 mg/kg. The class given is functional, Mus musculus.
Test [2] concerns L1210. Put plainly: Median survival time of inhibitory activity against L1210 tumor cells in mouse at the dose of 100 mg/kg. The class given is functional.
Test [3] relates to L1210. The experiment in a line: Median survival time of inhibitory activity against L1210 tumor cells in mouse at the dose of 12.5 mg/kg. The class given is functional.
In test [4] the test system is L1210. The experiment in a line: Median survival time of inhibitory activity against L1210 tumor cells in mouse at the dose of 25 mg/kg. The class given is functional.
Test [5] has as its system L1210. Put plainly: Median survival time of inhibitory activity against L1210 tumor cells in mouse at the dose of 50 mg/kg. The class given is functional.
Test [6] deals with Mus musculus. Put plainly: Average weight change in mouse after the treatment with 100 mg/kg dose of the compound. The class given is functional.
Test [7] deals with Mus musculus. The experiment in a line: Average weight change in mouse after the treatment with 12.5 mg/kg dose of the compound. The class given is functional.
Test [8] concerns Mus musculus. Put plainly: Average weight change in mouse after the treatment with 200 mg/kg dose of the compound. The class given is functional.
For test [9], the system named is Mus musculus. Put plainly: Average weight change in mouse after the treatment with 25 mg/kg dose of the compound. The class given is functional.
In test [10] the test system is Mus musculus. The experiment in a line: Average weight change in mouse after the treatment with 50 mg/kg dose of the compound. The class given is functional.
The subject of test [11] is Mus musculus. Put plainly: Survivors after the treatment with 100 mg/kg dose for 5 days in 6 mice. The class given is functional.
Test [12] has as its system Mus musculus. Put plainly: Survivors after the treatment with 12.5 mg/kg dose for 5 days in 6 mice. The class given is functional.
The subject of test [13] is Mus musculus. Put plainly: Survivors after the treatment with 200 mg/kg dose for 5 days in 6 mice. The class given is functional.
The test system of test [14] is Mus musculus. The experiment in a line: Survivors after the treatment with 25 mg/kg dose for 5 days in 6 mice. The class given is functional.
Test [15] has as its system Mus musculus. Put plainly: Survivors after the treatment with 50 mg/kg dose for 5 days in 6 mice. The class given is functional.

As for `CC(O)[C@H]1O[C@@H](n2cnc3c(S)ncnc32)[C@H](O)[C@@H]1O` (stereo not given in full), the T/C with L1210 [1] stood at 148%; with L1210 [2], 146%; in the test with L1210 [3], 107%; with L1210 [4], 116%; in the test with L1210 [5], 142%. For the same compound, the Average weight change with Mus musculus [6] is given as -3.6; with Mus musculus [7] it was -1; in the test with Mus musculus [8], -4.4; in the test on Mus musculus [9], -1.4; with Mus musculus [10], -1.7. The Survivors with Mus musculus [11], with Mus musculus [12], with Mus musculus [13], in the test with Mus musculus [14] and with Mus musculus [15] was 6 in each case.

The record behind these values is ChEMBL document CHEMBL1122249, “Synthesis of hypoxanthine, guanine, and 6-thiopurine nucleosides of 6-deoxy-D-allofuranose” (1983).
